{
  "source": "paper PMC8467577",
  "about": "“Infection Responsive Smart Delivery of Antibiotics Using Recombinant Spider Silk Nanospheres” (Pharmaceutics, 2021)",
  "key": {"thrombin": {"test_system": "thrombin", "details": "releasing gentamicin linked to a polyvinyl alcohol (PVA) support matrix; cited from earlier work", "excerpt": "Strategies utilizing microenvironments unique to tissues and disease states as a molecular cue to activate drug release has gained widespread attention in the treatment of various diseases like cancer, diabetes, and bacterial infections as it increases drug stability and therapeutic efficacy while decreasing toxic side effects at the same time. Several enzymes including a thrombin-like enzyme in S. aureus, myeloperoxidase in Candida, and esterases in uropathogens were reported to be elevated during infection, whereas virulence factors for certain bacteria like b ..."}, "[1]": {"assay": "Exposure to human serum (HPLC)", "type": "in vitro ADME", "excerpt": "Frequent and inappropriate usage of antibiotics has changed the natural evolution of bacteria by reducing susceptibility and increasing resistance towards antibacterial agents. New resistance mechanisms evolved in the response to host defenses and pharmaceutical interventions are threatening our ability to treat common infections, resulting in increased mortality. In the face of this rising epidemic, antibiotic drug discovery, which has long been overlooked by big pharma, is reaching a critical low. Thus, the development of an infection-responsive drug delivery system, which may mitigate multidrug resistance and preserve the lifetime of our current antibiotic arsenal, has garnered the attention of both popular science and funding agencies. The present work describes the development of a thrombin-sensitive linker embedded into a recombinant spider silk copolymer to create a nanosphere drug delivery vehicle. […] A thrombin sensitive peptide (TSP) was synthesized, and the thrombin cleavage sensitivity was determined by HPLC. […] Subsequently, the peptide was coupled with a silk copolymer via EDC-NHS chemistry and formulated into nanospheres encapsulating antibiotic vancomycin. These nanospheres were evaluated for in vitro infection-responsive drug release and antimicrobial activity. Finally, the drug responsive nanospheres were assessed for efficacy in an in vivo septic arthritis model. […]"}, "human thrombin": {"target": "human thrombin (Homo sapiens, UniProt P00734)", "experimental": "(§1) The thrombin-sensitive peptide, […] (TSP), was custom synthesized by standard Fmoc synthesis (WatsonBio, Houston, TX, USA). The susceptibility of the peptide to the bacterial thrombin-like enzyme was assessed by exposing the peptide to media from an actively growing S. aureus culture. Enzymatic activity of the media was initially determined by titrating culture exudate into a fluorogenic thrombin substrate, Boc-Val-Pro-Arg-MCA (Sigma Aldrich, St. Louis, MO, USA). TSP was then exposed to the media with varying enzymatic activity and incubated at 37 °C with shaking. The sample was analyzed with HPLC (mobile phase 0.1% TFA/water (A) 0.1% TFA/Acetonitrile (B), under a gradient flow of 5–90% at a flow rate of 1.0 mL/min) every 12 h through 48 h. Protein was detected at a wavelength of 215 nm. A similar experiment was conducted with the recombinant spider silk to check the susceptibility of the silk protein to the bacterial enzyme.\n(§2) The susceptibility of the TSP to the bacterial thrombin-like enzyme was assessed by exposing the peptide to media from an actively growing S. aureus culture. Enzymatic activity of the bacterial culture was determined by a fluorogenic thrombin substrate, Boc-Val-Pro-Arg-MCA. TSP was initially titrated into media with varying enzymatic activity to determine the amount of enzyme required to cleave the peptide."}, "[2]": {"details": "water control, HPLC", "experimental": "as §1, §2"}, "[3]": {"test_system": "bacterial thrombin-like enzyme (media from an actively growing S. aureus culture)", "assay": "Susceptibility to spent S. aureus culture media (HPLC)", "details": "for degradation of silk protein in S. aureus bacterial media: 48 h, different concentrations of spent bacterial media vs control without media, 37 °C, HPLC area under the curve", "experimental": "as §1"}, "[4]": {"assay": "Critical aggregation concentration by pyrene fluorescence", "type": "physicochemical", "details": "pyrene fluorescence I1/I3 (379/393 nm), phosphate buffer, sonicated 5 min, incubated 1 h", "experimental": "The critical aggregation concentration (CAC) of silk was determined by the pyrene fluorescence method. Briefly, 20 µL of 24 µg/mL (working concentration) of a pyrene solution was prepared in acetone and acetone was evaporated. Later, 980 µL of silk peptide in the phosphate buffer at different concentrations was then added to the pyrene, and the mixture was sonicated for 5 min and incubated for 1 h. The fluorescence spectra of the samples were recorded at an excitation of 336 nm and emission of 360–450 nm wavelengths. Intensity peaks at 379 nm (I1) and 393 nm (I3) were recorded. The ratio of I1/I3 was plotted against log concentration, and the point where a sharp inclination in the graph was noted as the CAC."}, "[5]": {"test_system": "S. aureus infected knee joint", "assay": "In vivo septic arthritis model, H&E histopathology of knee joint", "set-up": "species or system Sprague Dawley rats", "details": "H&E staining, 48 h after local treatment", "experimental": "After establishing the septic arthritis disease model, treatment with either free drug, drug-loaded conjugate particles, or drug-loaded silk particles was given on day two after bacterial inoculation. Rats were divided into three treatment groups (Table 1). The first group received drug-loaded (14 mg/kg) conjugate nanoparticles in the infected knee locally delivered into the synovial joint space while the uninfected knee was injected with unloaded conjugate nanoparticles. The second group received drug-loaded plain silk SX2 particles into the infected knee while the uninfected knee was injected with unloaded SX2 particles. The third group received a free drug into the infected knee joint and sterile PBS into the uninfected knee. The treatment was continued for 48 h after which rats were euthanized and limbs were collected for histopathological analysis. Before euthanasia, synovial fluid was collected from the joint space of the infected knee and the control knee of all the groups and cultured on LB agar plates overnight. After incubation overnight, the number of colonies were counted.\nHistopathology was performed on the infected and uninfected bones by hematoxylin and eosin (H and E) stain. Initially the bones were harvested from the rat after euthanasia and fixed in 10% neutral buffered formalin for 72 h. […]"}, "S. aureus": {"test_system": "S. aureus", "details": "standard ZOI values of the free drug for SA; ref not given; cited from earlier work", "experimental": "To explore the potential efficacy of this delivery system for the treatment of S. aureus septic arthritis, the antibacterial effect of Vancomycin-loaded nanospheres was first tested in vitro on Staphylococcus aureus. […] Once the MIC was established, antibacterial activity was tested by a Kirby Bauer Zone of Inhibition assay."}},
  "note": "Peptide text beside a SMILES is read from it.",
  "data": [
    {"compound": "GFDPRGFPAGG", "values": [
      {"measurement": "time to complete cleavage", "setting": "thrombin", "value": "≤ 15", "unit": "min"}
    ]},
    {"compound": "C[C@H](NC(=O)[C@@H]1CCCN1C(=O)[C@H](Cc1ccccc1)NC(=O)CNC(=O)[C@H](CCCNC(=N)N)NC(=O)[C@@H]1CCCN1C(=O)[C@H](CC(=O)O)NC(=O)[C@H](Cc1ccccc1)NC(=O)CNC(=O)[C@H](CCCCN)NC(=O)[C@H](CC(=O)O)NC(=O)[C@H](CC(=O)O)NC(=O)[C@H](CC(=O)O)NC(=O)[C@H](CC(=O)O)NC(=O)[C@H](Cc1c[nH]cn1)NC(=O)[C@H](Cc1c[nH]cn1)NC(=O)[C@H](Cc1c[nH]cn1)NC(=O)[C@H](Cc1c[nH]cn1)NC(=O)[C@H](Cc1c[nH]cn1)NC(=O)[C@@H](N)Cc1c[nH]cn1)C(=O)NCC(=O)NCC(=O)O", "note": "[TSP] (H-HHHHHHDDDDKGFDPRGFPAGG-OH)", "values": [
      {"measurement": "cleavage on exposure to human serum", "setting": "[1]", "value": "no cleavage"},
      {"measurement": "degradation in human thrombin after 48 h", "setting": "human thrombin", "value": "minimal degradation"},
      {"measurement": "stability to human thrombin", "setting": "human thrombin", "value": "still intact"},
      {"measurement": "stability to human thrombin after 24 h", "setting": "human thrombin", "value": "intact"},
      {"measurement": "stability in water after 24 h", "setting": "[2]; 24 h exposure, n = 3", "value": "intact"},
      {"measurement": "stability in water", "setting": "[2]; data not shown", "value": "still intact"},
      {"measurement": "cleavage on incubation with S. aureus exudate", "setting": "[3]; S. aureus exudate, HPLC", "value": "cleaved"},
      {"measurement": "time to cleavage of the peptide in S. aureus bacterial media", "setting": "[3]; media from actively growing S. aureus culture, enzymatic activity 23 a.u., 37 °C with shaking, HPLC 215 nm every 12 h through 48 h", "value": "≤ 12", "unit": "h"}
    ]},
    {"compound": "(GGYGPGQQGPGGYGPGQQGPSGPGSAAAAAAAA)2 [silk]", "values": [
      {"measurement": "critical aggregation concentration (CAC)", "setting": "[4]", "value": 1.2, "unit": "mg/mL"},
      {"measurement": "degradation of silk protein in S. aureus bacterial media", "setting": "[3]; listed as silk peptide", "value": "stability of the peptide even after 48 h"},
      {"measurement": "degradation of silk protein in S. aureus bacterial media", "setting": "[3]; listed as silk protein", "value": "no significant difference in the degradation"}
    ]},
    {"compound": "CN[C@H](CC(C)C)C(=O)N[C@H]1C(=O)N[C@@H](CC(N)=O)C(=O)N[C@H]2C(=O)N[C@H]3C(=O)N[C@H](C(=O)N[C@H](C(=O)O)c4cc(O)cc(O)c4-c4cc3ccc4O)[C@H](O)c3ccc(c(Cl)c3)Oc3cc2cc(c3O[C@@H]2O[C@H](CO)[C@@H](O)[C@H](O)[C@H]2O[C@H]2C[C@](C)(N)[C@H](O)[C@H](C)O2)Oc2ccc(cc2Cl)[C@H]1O", "note": "[vancomycin-free drug, vancomycin]", "values": [
      {"measurement": "histopathological findings in infected joint", "setting": "[5]", "value": "similar, if not more inflamed, appearance"},
      {"measurement": "standard ZOI value", "setting": "S. aureus", "value": "> 12", "unit": "mm"}
    ]}
  ]
}
